Laboratory results as given in patent publication US7563781B2, “Triazolopyrimidine derivatives” (Janssen Pharmaceutica NV, priority 2006, dated 2009).

Tests used:
[1] = target: T1, Focal Adhesion Kinase (full-length Flag-tagged human FAK) (Homo sapiens, UniProt Q05397); assay: in vitro FAK ELISA kinase assay; assay type: biochemical; settings: compound 10 uM; ATP 2 uM; read-out: FAK % Inhib ave: 10 uM
T1 construct: a purified recombinant full-length Flag-tagged human FAK protein; Flag; made in house; host or cells: baculovirus infected insect cells
T1 sequence (Q05397 whole entry): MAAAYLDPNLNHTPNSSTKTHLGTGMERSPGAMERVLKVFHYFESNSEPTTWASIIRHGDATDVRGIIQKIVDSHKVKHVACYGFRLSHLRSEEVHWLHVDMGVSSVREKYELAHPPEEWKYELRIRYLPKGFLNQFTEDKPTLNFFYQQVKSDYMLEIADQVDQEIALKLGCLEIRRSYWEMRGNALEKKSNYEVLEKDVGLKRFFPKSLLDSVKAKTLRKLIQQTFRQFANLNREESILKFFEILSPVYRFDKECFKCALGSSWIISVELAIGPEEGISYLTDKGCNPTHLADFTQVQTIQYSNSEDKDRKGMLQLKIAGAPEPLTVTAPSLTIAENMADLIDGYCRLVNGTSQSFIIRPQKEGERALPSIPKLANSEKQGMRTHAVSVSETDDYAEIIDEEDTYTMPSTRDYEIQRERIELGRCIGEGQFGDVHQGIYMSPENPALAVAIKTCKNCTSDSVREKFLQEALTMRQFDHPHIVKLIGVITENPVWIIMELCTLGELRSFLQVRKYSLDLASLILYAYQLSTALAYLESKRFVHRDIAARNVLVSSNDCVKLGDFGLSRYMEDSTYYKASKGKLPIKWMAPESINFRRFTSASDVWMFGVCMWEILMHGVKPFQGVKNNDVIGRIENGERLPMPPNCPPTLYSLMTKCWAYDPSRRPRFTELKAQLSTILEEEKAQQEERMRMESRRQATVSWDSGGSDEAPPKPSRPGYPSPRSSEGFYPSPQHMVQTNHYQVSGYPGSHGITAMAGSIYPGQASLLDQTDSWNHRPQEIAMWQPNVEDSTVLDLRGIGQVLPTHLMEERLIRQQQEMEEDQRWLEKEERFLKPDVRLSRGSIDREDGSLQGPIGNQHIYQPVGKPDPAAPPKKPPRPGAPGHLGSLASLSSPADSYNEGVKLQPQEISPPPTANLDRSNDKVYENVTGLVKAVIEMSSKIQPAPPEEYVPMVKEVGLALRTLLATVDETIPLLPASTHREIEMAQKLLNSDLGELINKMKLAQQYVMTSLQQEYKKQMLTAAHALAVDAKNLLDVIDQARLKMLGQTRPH
Outline: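 Plate-coated GST fusion of the 73-residue region around Tyr397 phosphorylated by full-length Flag-tagged human FAK from baculovirus-infected insect cells, with 2 μM ATP in Mg/Mn HEPES pH 7.5, 1 h at 30 °C. Phosphotyrosine detected by HRP-anti-pTyr ELISA with TMB read-out. Compounds screened at 10 μM or titrated from 50 μM in half-log steps for IC50, BSA-substrate background subtracted.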

[2] = target: T2, CAK complex (human Cdk7, human Cyclin H, MAT-1) (Homo sapiens, UniProt P50613); assay: in vitro time-resolved-fluorescence assay for the CAK kinase activity; assay type: biochemical; settings: compound 20 uM; read-out: CAK % inhib; 20 uM
T2 construct: made in house; host or cells: SF-900 insect cells co-infected with Flag-Cdk7 and Bab-Cyclin H baculoviruses
T2 sequence (P50613 with tags, fused parts or gaps): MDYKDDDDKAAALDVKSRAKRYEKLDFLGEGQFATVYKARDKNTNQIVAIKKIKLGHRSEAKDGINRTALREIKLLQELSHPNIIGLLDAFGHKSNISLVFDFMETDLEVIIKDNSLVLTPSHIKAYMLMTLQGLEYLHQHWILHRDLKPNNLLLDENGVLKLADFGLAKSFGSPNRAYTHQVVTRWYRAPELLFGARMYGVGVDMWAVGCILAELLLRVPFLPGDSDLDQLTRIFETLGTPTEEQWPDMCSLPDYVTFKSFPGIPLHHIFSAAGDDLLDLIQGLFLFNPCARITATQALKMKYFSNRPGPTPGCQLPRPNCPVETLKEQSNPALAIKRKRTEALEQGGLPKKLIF
T2 sequence (as listed by the source partner): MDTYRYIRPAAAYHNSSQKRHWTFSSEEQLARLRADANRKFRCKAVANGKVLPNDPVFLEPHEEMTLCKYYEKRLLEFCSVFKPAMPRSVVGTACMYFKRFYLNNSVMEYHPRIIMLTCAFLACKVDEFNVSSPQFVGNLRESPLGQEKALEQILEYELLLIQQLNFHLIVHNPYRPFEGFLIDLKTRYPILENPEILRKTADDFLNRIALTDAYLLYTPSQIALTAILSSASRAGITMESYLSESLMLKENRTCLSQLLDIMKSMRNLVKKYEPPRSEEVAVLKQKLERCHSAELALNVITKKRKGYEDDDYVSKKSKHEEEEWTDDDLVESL
Outline: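 Kinase activity of the human CAK complex (Flag-tagged Cdk7, Cyclin H, MAT-1), purified from co-infected SF-900 insect cells by Flag-M2 immunoaffinity, was measured by time-resolved fluorescence. In black glutathione-coated 96-well plates, 500 ng GST-CTD substrate with 22 uM ATP was mixed with compound in 30% DMSO/25 mM Hepes and 250 ng CAK. Plates were incubated 20 minutes at 30° C, then stopped with EDTA, bound overnight and washed. A Europium-labeled antibody detected serine-phosphorylated CTD.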

Compound	inhibition at 10 µM [1] [%]	inhibition at 20 µM [2] [%]
CC(C)(C)OC(=O)N1CCC(CNc2ncc3nnn(-c4ccc5c(c4)CCC5)c3n2)CC1 [Compound 6, 4-[(3-Indan-5-yl-3H-[1,2,3]triazolo[4,5-d]pyrimidin-5-ylamino)-methyl]-piperidine-1-carboxylic acid tert-butyl ester]	73	28.9
CCN(CC)CCNC(=O)c1ccc(Nc2ncc3nnn(C4CCc5ccccc54)c3n2)cc1 (stereo not drawn) [Compound 61, N-(2-Diethylamino-ethyl)-4-(3-indan-1-yl-3H-[1,2,3]triazolo[4,5-d]pyrimidin-5-ylamino)-benzamide]	85.5	79.4
O=C(NCCCN1CCCC1)c1ccc(Nc2ncc3nnn(-c4ccc5c(c4)CCC5)c3n2)cc1 [Compound 75, 4-(3-Indan-5-yl-3H-[1,2,3]triazolo[4,5-d]pyrimidin-5-ylamino)-N-(3-pyrrolidin-1-yl-propyl)-benzamide]	77.9	84
CCCCNS(=O)(=O)c1cccc(Nc2ncc3nnn(-c4ccc(N5CCN(Cc6ccccc6)CC5)cc4)c3n2)c1 [Compound 54, 3-{3-[4-(4-Benzyl-piperazin-1-yl)-phenyl]-3H-[1,2,3]triazolo[4,5-d]pyrimidin-5-ylamino}-N-butyl-benzene-sulfonamide]	15.2	20.5
CCN(CC)CCNC(=O)c1ccc(Nc2ncc3nnn([C@@H](CO)[C@@H](O)c4ccccc4)c3n2)cc1 [Compound 70, N-(2-Diethylamino-ethyl)-4-[3-(2-hydroxy-1-hydroxymethyl-2-phenyl-ethyl)-3H-[1,2,3]triazolo[4,5-d]pyrimidin-5-ylamino]-benzamide]	15	21
c1cc(Nc2ncc3nnn(C4CCCC4)c3n2)cc(-c2nnn[nH]2)c1 [Compound 67, (3-Cyclopentyl-3H-[1,2,3]triazolo[4,5-d]pyrimidin-5-yl)-[3-(1H-tetrazol-5-yl)-phenyl]-amine]	15.4	44.2

Second part, the compound after the results:

inhibition at 10 µM [1] [%]	inhibition at 20 µM [2] [%]	Compound
82.9	92.4	CN(C)CC(O)COc1ccc(Nc2ncc3nnn(-c4ccc5ccccc5c4)c3n2)cc1 (stereo not drawn) [Compound 12, 1-Dimethylamino-3-[4-(3-naphthalen-2-yl-3H-[1,2,3]triazolo[4,5-d]pyrimidin-5-ylamino)-phenoxy]-propan-2-ol]
13	43.5	c1ccc(-c2cccc(Nc3ncc4nnn(-c5ccc6c(c5)CCC6)c4n3)c2)cc1 [Compound 23, Biphenyl-3-yl-(3-indan-5-yl-3H-[1,2,3]triazolo[4,5-d]pyrimidin-5-yl)-amine]
65.3	56	CN(C)CC(O)COc1ccc(Nc2ncc3nnn(-c4ccc(F)c(F)c4)c3n2)cc1 (stereo not drawn) [Compound 11, 1-{4-[3-(3,4-Difluoro-phenyl)-3H-[1,2,3]triazolo[4,5-d]pyrimidin-5-ylamino]-phenoxy}-3-dimethylamino-propan-2-ol]
